Results taken from patent US12371430B2, “5-morpholin-4-yl-pyrazolo[4,3-b]pyridine derivatives” (Merck Patent GmbH, priority 2018, dated 2025).

Assays:
[1] = molecular target: Kv11.1 (hERG) ion channel (Homo sapiens (Human), UniProt Q12809); assay: Kv11.1 (hERG) ion channel activity, whole cell patch clamp in HEK293; assay type: cell-based; conditions: for Ki: heading: hERG Ki, HEK293 cells stably expressing hERG, patch clamp
Method: Kv11.1 (hERG) Ion Channel Activity
In this assay, a potential in vitro effect of test compounds on the Kv11.1 (hERG) ion channel current is investigated which mediates the rapidly activating, delayed rectifier cardiac potassium current (IKr). The assay is performed with a stable Kv11.1 (hERG) transfected human embryonic kidney cell line (HEK293) by whole cell patch clamp technique carried out at room temperature.
The Kv11.1 (hERG) ion channel blocker quinidine is used as reference compound. The effects of the test compounds and quinidine are normalized to the corresponding vehicle control. The whole cell recordings are carried out with an automated patch clamp device Patchliner™, Nanion Technologies, Munich). Hereby the Patch Clamp measurements run on silicate-coated chips with a hole of a defined diameter. Solutions, cell suspension and compounds are applied by a Teflon-laminated pipette needle through microfluidic silicate-laminated channels. Commercial patch clamp amplifiers (EPC10, HEKA Elektronik Dr. Schulze GmbH, Germany) are used for the patch clamp recordings. HEK293 cells stably expressing the hERG gene are held at −80 mV. Steady-state inhibition of Kv11.1 (hERG) potassium current due to test/reference compound application is measured using a pulse pattern with fixed amplitudes: 51 ms/−80 mV, 500 ms/+40 mV, 500 ms/−40 mV, 200 ms/−80 mV. The hERG-specific voltage protocol is repeated at 10 s intervals. The leak current is subtracted by a P4 leak subtraction. Cells are resuspended in extracellular patch clamp solution (EC) and applied into the chip. After trapping the cell, the EC is exchanged by seal enhancer solution (SE) to improve the sealing procedure. When the whole cell configuration is attained, seal enhancer is washed out by the application of EC. The recording is started in EC for 1.5 min. Afterwards DMSO (vehicle control, 0.1% DMSO) is applied and the control current is measured for 3 min. Following control steady-state current, test compound is applied twice at the same concentration and the tail current is measured for 3.5 min each. For the determination of a concentration-relationship, the test compound is applied as a cumulative concentration-response curve and each concentration is measured for 5 min. The reference compound quinidine is treated in the same way. The effect on Kv11.1 (hERG) ion channel activity is judged from the tail current amplitude monitored at −40 mV (current of interest, COI). Results are calculated from the last recorded current traces. Changes in Kv11.1 (hERG) ion channel activity between control value, defined as 100% Kv11.1 (hERG) ion channel activity, application of test compound and application of quinidine is reported as percent change of control value of COI. An aliquot of test compound is collected for concentration verification during the recording. The sample is immediately measured by HPLC and the final compound concentration within the assay is calculated according to a calibration curve.

[2] = molecular target: ATR/ATRIP (Homo sapiens (Human), UniProt Q13535); assay: ATR/ATRIP kinase assay (TR-FRET, p53 Ser15 phosphorylation); assay type: biochemical; conditions: 0.5 μM ATP, 50 nM p53
In short: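 Full-length human ATR/ATRIP co-expressed in mammalian cells (typically 0.3 nM) preincubated with compound 15 min at 22° C, then 50 nM cmyc-p53 and 0.5 μM ATP added for typically 25 min; HEPES pH 8.0 with Mg2+/Mn2+. p53 Ser15 phosphorylation read by HTRF (665/615 ratio); IC50 by nonlinear regression.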

[3] = tested on: phosphorylation of Chk1 (Ser 345) in HT29 colon adenocarcinoma cells; assay: pCHK1 cellular assay; assay type: cell-based; conditions: Homo sapiens, HT-29, hydroxyurea 3 mM, 4 h
In short: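 HT29 cells plated ≥20 h, then compound (1 nM–30 μM final) with hydroxyurea (3 mM final) added together for 4 h at 37 °C. After MeOH/Triton fixation-permeabilisation, anti-pChk1 immunostaining plus nuclear stain; nuclear pChk1 imaged by confocal high content reader, reported as % positive nuclei.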

ATR/ATRIP, sequence (Q13535 whole entry): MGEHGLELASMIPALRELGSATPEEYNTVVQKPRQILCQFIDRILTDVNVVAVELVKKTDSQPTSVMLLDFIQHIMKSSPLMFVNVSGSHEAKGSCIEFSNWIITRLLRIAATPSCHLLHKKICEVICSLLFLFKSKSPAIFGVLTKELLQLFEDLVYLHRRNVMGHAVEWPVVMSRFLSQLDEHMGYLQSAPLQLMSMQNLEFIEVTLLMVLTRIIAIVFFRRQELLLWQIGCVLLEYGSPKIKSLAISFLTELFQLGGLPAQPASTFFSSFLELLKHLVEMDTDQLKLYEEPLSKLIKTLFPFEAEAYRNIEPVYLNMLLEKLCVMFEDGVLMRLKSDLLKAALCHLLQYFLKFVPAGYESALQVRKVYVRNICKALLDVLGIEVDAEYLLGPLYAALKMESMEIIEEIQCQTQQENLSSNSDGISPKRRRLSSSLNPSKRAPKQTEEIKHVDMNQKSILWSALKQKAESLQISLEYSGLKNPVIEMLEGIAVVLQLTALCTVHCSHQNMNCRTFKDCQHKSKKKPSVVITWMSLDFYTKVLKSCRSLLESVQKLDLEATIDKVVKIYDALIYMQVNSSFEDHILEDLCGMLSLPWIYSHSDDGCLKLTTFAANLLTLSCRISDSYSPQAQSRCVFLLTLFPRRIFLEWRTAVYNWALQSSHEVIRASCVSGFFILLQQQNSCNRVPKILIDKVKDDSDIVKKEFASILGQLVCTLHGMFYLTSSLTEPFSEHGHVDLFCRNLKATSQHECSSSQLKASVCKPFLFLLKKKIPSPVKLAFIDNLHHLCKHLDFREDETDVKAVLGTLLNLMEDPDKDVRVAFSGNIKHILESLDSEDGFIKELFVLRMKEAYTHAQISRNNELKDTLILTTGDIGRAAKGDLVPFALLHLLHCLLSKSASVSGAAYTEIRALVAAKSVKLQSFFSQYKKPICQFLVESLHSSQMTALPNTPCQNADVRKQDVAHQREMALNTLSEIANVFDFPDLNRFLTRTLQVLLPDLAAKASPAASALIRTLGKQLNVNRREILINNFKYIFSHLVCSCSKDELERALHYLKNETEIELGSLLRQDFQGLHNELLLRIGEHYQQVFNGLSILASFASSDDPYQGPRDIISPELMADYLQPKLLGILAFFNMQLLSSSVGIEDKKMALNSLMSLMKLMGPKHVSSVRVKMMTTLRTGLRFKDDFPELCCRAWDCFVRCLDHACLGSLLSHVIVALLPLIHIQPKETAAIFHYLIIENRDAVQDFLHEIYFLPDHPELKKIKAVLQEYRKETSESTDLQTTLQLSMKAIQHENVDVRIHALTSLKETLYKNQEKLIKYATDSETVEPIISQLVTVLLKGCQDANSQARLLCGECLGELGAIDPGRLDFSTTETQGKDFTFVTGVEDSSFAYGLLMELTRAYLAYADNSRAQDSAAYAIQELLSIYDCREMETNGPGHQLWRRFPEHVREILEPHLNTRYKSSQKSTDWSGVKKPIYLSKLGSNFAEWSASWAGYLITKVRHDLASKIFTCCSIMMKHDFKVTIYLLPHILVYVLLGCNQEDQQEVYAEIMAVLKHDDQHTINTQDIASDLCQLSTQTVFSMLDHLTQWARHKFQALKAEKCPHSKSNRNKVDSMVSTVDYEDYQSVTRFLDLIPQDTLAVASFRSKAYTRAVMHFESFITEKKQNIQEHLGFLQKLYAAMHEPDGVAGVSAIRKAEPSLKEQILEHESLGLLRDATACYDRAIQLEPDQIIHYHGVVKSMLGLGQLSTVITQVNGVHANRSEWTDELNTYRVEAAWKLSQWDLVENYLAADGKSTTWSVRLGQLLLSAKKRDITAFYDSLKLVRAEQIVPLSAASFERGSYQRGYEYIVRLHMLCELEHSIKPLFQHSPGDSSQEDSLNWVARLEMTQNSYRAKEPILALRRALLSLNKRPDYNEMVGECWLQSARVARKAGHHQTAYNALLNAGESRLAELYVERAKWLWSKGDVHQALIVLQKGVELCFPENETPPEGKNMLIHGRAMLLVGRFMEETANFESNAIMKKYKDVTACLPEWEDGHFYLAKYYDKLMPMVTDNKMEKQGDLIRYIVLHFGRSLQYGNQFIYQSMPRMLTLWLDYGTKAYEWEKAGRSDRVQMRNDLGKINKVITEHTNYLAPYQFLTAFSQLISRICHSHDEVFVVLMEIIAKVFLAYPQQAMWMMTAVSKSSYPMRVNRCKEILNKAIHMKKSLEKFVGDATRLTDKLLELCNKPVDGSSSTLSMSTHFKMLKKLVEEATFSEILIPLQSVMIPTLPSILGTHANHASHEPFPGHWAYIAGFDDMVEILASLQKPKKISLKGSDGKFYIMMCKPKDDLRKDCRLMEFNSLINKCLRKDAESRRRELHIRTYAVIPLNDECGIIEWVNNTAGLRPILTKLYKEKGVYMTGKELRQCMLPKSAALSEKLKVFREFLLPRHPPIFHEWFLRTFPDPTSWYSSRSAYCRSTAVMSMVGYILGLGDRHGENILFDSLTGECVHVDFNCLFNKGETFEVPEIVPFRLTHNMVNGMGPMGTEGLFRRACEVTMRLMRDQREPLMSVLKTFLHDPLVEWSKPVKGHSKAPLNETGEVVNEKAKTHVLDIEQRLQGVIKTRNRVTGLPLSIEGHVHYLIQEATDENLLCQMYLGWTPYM
ATR/ATRIP, sequence (Q8WXE1 whole entry partner): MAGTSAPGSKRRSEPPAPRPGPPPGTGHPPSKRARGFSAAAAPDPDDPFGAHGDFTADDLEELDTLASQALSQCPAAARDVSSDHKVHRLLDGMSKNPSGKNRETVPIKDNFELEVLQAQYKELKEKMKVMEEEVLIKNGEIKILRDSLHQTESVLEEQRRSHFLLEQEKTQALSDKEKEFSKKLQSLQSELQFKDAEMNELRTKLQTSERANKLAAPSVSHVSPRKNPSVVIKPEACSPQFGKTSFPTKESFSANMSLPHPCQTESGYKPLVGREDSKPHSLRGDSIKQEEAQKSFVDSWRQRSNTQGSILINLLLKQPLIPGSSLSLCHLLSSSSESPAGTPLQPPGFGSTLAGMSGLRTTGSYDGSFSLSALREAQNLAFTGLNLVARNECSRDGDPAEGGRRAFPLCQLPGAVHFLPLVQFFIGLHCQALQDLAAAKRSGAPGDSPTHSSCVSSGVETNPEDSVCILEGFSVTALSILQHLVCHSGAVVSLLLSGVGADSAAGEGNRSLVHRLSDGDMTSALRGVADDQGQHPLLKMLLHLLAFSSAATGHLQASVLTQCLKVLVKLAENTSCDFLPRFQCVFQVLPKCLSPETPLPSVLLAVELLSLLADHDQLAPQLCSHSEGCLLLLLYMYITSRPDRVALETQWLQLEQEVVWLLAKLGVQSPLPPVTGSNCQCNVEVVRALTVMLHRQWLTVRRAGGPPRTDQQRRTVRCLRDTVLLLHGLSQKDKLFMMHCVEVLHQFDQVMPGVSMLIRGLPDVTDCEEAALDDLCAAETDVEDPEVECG
Kv11.1 (hERG) ion channel, sequence (Q12809 whole entry): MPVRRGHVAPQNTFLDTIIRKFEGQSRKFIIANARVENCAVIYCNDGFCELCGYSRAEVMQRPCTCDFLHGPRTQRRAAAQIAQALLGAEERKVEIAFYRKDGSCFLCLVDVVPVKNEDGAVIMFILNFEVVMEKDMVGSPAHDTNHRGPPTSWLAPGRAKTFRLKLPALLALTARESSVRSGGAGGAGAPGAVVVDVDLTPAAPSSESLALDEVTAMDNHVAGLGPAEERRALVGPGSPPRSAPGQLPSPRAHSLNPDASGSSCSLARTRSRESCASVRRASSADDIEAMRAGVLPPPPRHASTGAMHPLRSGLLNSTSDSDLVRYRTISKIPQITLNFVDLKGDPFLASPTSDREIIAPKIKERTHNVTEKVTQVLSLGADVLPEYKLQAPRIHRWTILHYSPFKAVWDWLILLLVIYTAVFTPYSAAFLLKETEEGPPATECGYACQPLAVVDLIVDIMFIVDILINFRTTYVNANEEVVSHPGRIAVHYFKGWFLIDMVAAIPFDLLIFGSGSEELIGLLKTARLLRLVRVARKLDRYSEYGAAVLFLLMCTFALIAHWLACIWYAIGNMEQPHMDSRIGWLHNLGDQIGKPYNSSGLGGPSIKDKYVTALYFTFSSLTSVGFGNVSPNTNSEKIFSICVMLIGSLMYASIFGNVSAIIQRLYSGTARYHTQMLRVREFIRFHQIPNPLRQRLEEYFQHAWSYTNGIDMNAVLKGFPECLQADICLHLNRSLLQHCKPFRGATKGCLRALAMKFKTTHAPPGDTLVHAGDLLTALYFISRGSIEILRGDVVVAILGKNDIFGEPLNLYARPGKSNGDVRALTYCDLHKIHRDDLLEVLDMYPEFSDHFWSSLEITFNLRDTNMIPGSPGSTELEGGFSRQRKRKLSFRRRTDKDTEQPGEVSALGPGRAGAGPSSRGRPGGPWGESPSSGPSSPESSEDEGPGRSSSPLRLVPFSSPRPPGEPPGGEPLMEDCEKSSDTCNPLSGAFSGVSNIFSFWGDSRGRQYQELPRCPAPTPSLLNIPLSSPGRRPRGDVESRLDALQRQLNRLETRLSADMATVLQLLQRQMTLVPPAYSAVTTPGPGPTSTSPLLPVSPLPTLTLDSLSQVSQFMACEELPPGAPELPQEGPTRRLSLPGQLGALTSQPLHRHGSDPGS

| SMILES | hERG % effect @ conc ([1]; @ 10 μM) | Ki [1] | IC50 [2] | IC50 [3] | hERG % effect @ conc ([1]; @ 30 μM) |
| --- | --- | --- | --- | --- | --- |
| C[C@@H]1COCCN1c1cc(-c2ccc(S(C)(=O)=O)cc2)c2c(n1)c(-c1cc[nH]n1)nn2C [Compound 7, 7-(4-Methanesulfonyl-phenyl)-1-methyl-5-((R)-3-methyl-morpholin-4-yl)-3-(1H-pyrazol-3-yl)-1H-pyrazolo[4,3-b]pyridine] | −16% | > 10000 nM | 2.3 nM | 10 to 100 nM |  |
| Cc1ccccc1-c1cc(N2CCOC[C@H]2C)nc2c(-c3cc[nH]n3)n[nH]c12 [Compound 35, (3R)-3-Methyl-4-[7-(2-methylphenyl)-3-(1H-pyrazol-3-yl)-1H-pyrazolo[4,3-b]pyridin-5-yl]morpholine] | −23% | > 10000 nM | 0.5 nM | 10 to 100 nM |  |
| C[C@@H]1COCCN1c1cc(C2(S(C)(=O)=O)CC2)c2c(n1)c(-c1cc[nH]n1)nn2C [Compound 26, 7-(1-Methanesulfonyl-cyclopropyl)-1-methyl-5-((R)-3-methyl-morpholin-4-yl)-3-(1H-pyrazol-3-yl)-1H-pyrazolo[4,3-b]pyridine] |  | > 30000 nM | 0.8 nM | 10 to 100 nM | −24% |
| C[C@@H]1COCCN1c1cc(C(C)(C)O)c2c(n1)c(-c1cc[nH]n1)nn2C [Compound 25, 2-[1-Methyl-5-((R)-3-methyl-morpholin-4-yl)-3-(1H-pyrazol-3-yl)-1H-pyrazolo[4,3-b]pyridin-7-yl]-propan-2-ol] | −1% | > 10000 nM | 4.3 nM | 10 to 100 nM |  |
| C[C@@H]1COCCN1c1cc(-c2ccnn2CCF)c2c(n1)c(-c1cc[nH]n1)nn2C [Compound 36, 7-[2-(2-Fluoro-ethyl)-2H-pyrazol-3-yl]-1-methyl-5-((R)-3-methyl-morpholin-4-yl)-3-(1H-pyrazol-3-yl)-1H-pyrazolo[4,3-b]pyridine] | −9% | > 10000 nM | 0.6 nM | 10 to 100 nM |  |
| Cc1ccc(-c2cc(N3CCOC[C@H]3C)nc3c(-c4cc[nH]n4)nn(C)c23)cn1 [Compound 1, 1-Methyl-5-((R)-3-methyl-morpholin-4-yl)-7-(6-methyl-pyridin-3-yl)-3-(1H-pyrazol-3-yl)-1H-pyrazolo[4,3-b]pyridine] |  | > 30000 nM | 2.3 nM | 10 to 100 nM | −28% |
| Cc1ncccc1-c1cc(N2CCOC[C@H]2C)nc2c(-c3cc[nH]n3)nn(C)c12 [Compound 4, 1-Methyl-5-((R)-3-methyl-morpholin-4-yl)-7-(2-methyl-pyridin-3-yl)-3-(1H-pyrazol-3-yl)-1H-pyrazolo[4,3-b]pyridine] | −12% | > 10000 nM | 0.8 nM | 10 to 100 nM |  |
| C[C@@H]1COCCN1c1cc(C2=CCOCC2)c2c(n1)c(-c1cc[nH]n1)nn2C [Compound 54, (3R)-4-[7-(3,6-Dihydro-2H-pyran-4-yl)-1-methyl-3-(1H-pyrazol-3-yl)-1H-pyrazolo[4,3-b]pyridin-5-yl]-3-methylmorpholine] | −2% | > 10000 nM | 2.2 nM | 10 to 100 nM |  |
| Cc1nc([S+](C)[O-])ccc1-c1cc(N2CCOC[C@H]2C)nc2c(-c3cc[nH]n3)nn(C)c12 (stereo partly drawn) [Compound 8, 7-(6-Methanesulfinyl-2-methyl-pyridin-3-yl)-1-methyl-5-((R)-3-methyl-morpholin-4-yl)-3-(1H-pyrazol-3-yl)-1H-pyrazolo[4,3-b]pyridine] | −6% | > 10000 nM | 2.1 nM | < 10 nM |  |
| Cc1nc(S(C)(=O)=O)ccc1-c1cc(N2CCOC[C@H]2C)nc2c(-c3cc[nH]n3)nn(C)c12 [Compound 11, (3R)-4-[7-(6-Methanesulfonyl-2-methylpyridin-3-yl)-1-methyl-3-(1H-pyrazol-3-yl)-1H-pyrazolo[4,3-b]pyridin-5-yl]-3-methylmorpholine] | −5% | > 10000 nM | 0.9 nM | 10 to 100 nM |  |
| C[C@@H]1COCCN1c1ccc2c(n1)c(-c1ccn[nH]1)nn2C [Compound 40, (3R)-3-Methyl-4-[1-methyl-3-(1H-pyrazol-5-yl)-1H-pyrazolo[4,3-b]pyridin-5-yl]morpholine] | 9% | > 10000 nM | 50.6 nM | 100 to 1000 nM |  |
| Cc1nn(C)cc1-c1cc(N2CCOC[C@H]2C)nc2c(-c3cc[nH]n3)nn(C)c12 [Compound 19, 7-(1,3-Dimethyl-1H-pyrazol-4-yl)-1-methyl-5-((R)-3-methyl-morpholin-4-yl)-3-(1H-pyrazol-3-yl)-1H-pyrazolo[4,3-b]pyridine] | −6% | > 10000 nM | 3.4 nM | 10 to 100 nM |  |
